Assay results published in PMC10235687, “Venetoclax is a potent hepsin inhibitor that reduces the metastatic and prothrombotic phenotypes of hepsin-expressing colorectal cancer cells” (Frontiers in Molecular Biosciences, 2023).

Target: T1, Hepsin (Homo sapiens, UniProt P05981)
T1 construct: gene HPN; Recombinant hepsin (R&D Systems)
Assay: Fluorogenic protease assay with recombinant hepsin ([…]) and BOC-Gln-Arg-Arg-AMC ([…]), pH […] h incubation with drug
Type: biochemical

T1 sequence (P05981 45-162 limits assumed): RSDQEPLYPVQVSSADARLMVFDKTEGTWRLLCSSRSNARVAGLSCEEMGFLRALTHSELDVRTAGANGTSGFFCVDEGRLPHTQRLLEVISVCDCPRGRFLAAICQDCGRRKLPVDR
T1 sequence (P05981 163-417 limits assumed): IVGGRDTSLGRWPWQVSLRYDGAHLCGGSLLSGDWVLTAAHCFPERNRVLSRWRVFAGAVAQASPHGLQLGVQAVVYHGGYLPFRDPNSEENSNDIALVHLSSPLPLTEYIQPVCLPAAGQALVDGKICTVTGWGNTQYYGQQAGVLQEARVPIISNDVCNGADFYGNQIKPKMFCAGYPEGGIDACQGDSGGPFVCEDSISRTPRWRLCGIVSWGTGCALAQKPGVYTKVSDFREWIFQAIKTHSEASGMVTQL

CC1(C)CCC(CN2CCN(c3ccc(C(=O)NS(=O)(=O)c4ccc(NCC5CCOCC5)c([N+](=O)[O-])c4)c(Oc4cnc5[nH]ccc5c4)c3)CC2)=C(c2ccc(Cl)cc2)C1 [Venetoclax] showed an IC50 of 480 nM.
